# Values quoted from earlier work as cited in US20060069047A1, “Antibiotic conjugates” (priority 2002, published 2006).
# Columns and labels:
# PMN = conditions: intracellular/extracellular concentration, PMN incubated 1 h
# [1] = in vivo
Compound,I/E ratio (PMN),half-life (t1/2) [1] [h],cellular-to-extracellular concentration ratio (C/E) (phagocytic cells)
CC[C@H]1OC(=O)[C@H](C)[C@@H](O[C@H]2C[C@@](C)(OC)[C@@H](O)[C@H](C)O2)[C@H](C)[C@@H](O[C@@H]2O[C@H](C)C[C@H](N(C)C)[C@H]2O)[C@](C)(O)C[C@@H](C)CN(C)[C@H](C)[C@@H](O)[C@]1(C)O [Azithromycin],517,~68,~500
C[C@H]1COc2c(N3CCN(C)CC3)c(F)cc3c(=O)c(C(=O)O)cn1c23 [Levofloxacin],4.8,–,–
COc1c(N2C[C@@H]3CCCN[C@@H]3C2)c(F)cc2c(=O)c(C(=O)O)cn(C3CC3)c12 [Moxifloxacin],12.0,–,–
"CC1(C)SC2C(NC(=O)Cc3ccccc3)C(=O)N2C1C(=O)O (stereo not shown) [Penicillin G, 3,3-Dimethyl-7-oxo-6-phenylacetylamino-4-thia-1-aza-bicyclo[3.2.0]heptane-2-carboxylic acid]",0.16,–,–
CC[C@H]1OC(=O)[C@H](C)C(=O)[C@H](C)[C@@H](O[C@@H]2O[C@H](C)C[C@H](N(C)C)[C@H]2O)[C@](C)(OC)C[C@@H](C)C(=O)[C@H](C)[C@H]2N(CCCCn3cnc(-c4cccnc4)c3)C(=O)O[C@]12C [Telithromycin],197,–,–
